We go through 2 molecules from patent US9675569B2, “Method for treating a pulmonary disease state in mammals by up regulating indigenous in vivo levels of inflammatory agents in mammalian cells” (priority 2012, dated 2017).

One experiment relates to HSV-I infected cell. The experiment is described as follows: Viral plaque reduction in HSV-I infected cells. The format is cell-based. The following applies: for viral plaque formation decreased: virally infected cells (Example 1). The text has this:
The primary end points were the levels of IL-8 and IL-1 after treatment with an immunostimulator, pyruvate and the combination of pyruvate and α-ketoisovalerate. […] IL-8 activates neutrophils to increase their numbers at the infected site. […] IL-1 increases inflammation and decreases healing times. […] Viral plaques are a direct measure of viral numbers in infected cells.

For experiment [1], the system named is total protein, elastase, IL-6, IL-8, TNF-α. The experiment can be described thus: Inhaled sodium pyruvate in cystic fibrosis safety study: sputum inflammatory biomarkers. It is filed as in vivo, human. The following applies: for total proteins, elastase, IL-6, IL-8, and TNF-α: CF subjects. On the procedure: All of the enrolled and dosed subjects were able to provide sputum samples for analysis before and after exposure to study drug (sodium pyruvate for inhalation at 0.5, 1.5, and 5.0 mM levels). The subjects were given 5 ml samples to inhale. Specimens were of good quality for the planned assays.
Samples were divided into two main aliquots after processing. The first aliquot was left untreated to be able to assay for the activity of free elastase. The second aliquot was treated with protease inhibitors pheylmethanesulfonylfluoride (PMSF) and ethylenediamine tetraacetic acid (EDTA) to stop any degradation of the cytokines of interest (IL-6, IL-8, IL-10, IL-17, and IL-23) and total protein.
For IL-10, IL-17 and IL-23, levels on sputum were at or below the limit of detection for the assays (7, 2 and 20 pg/mL respectively). For the other markers (total protein, elastase, IL-6, IL-8, TNF-α) levels detected where within those typically found in cystic fibrosis (CF) patients.

In another experiment the test system is viral infections. The experiment is described as follows: Inhaled sodium pyruvate in a patient with sinusitis, viral infections. The format is in vivo, human. Particulars: inhalation of 5.0 mls of a 20 mM solution, used by itself; one patient. On the procedure:
(§1) This medication is an anti-viral drug used to treat infants and young children who have a severe lung infection caused by a certain virus (respiratory syncytial virus-RSV). Nearly all children become infected with this virus before they are 3 years old. […] This medication is used to treat severe RSV infections that need treatment in a hospital. This medication is given by continuous inhalation, usually for 12 to 18 hours daily for 3 to 7 days or as directed by the doctor. A special machine (small-particle aerosol generator) is used to make a mist, which is then inhaled through the mouth or nose. Chest soreness may occur. Redness/irritation of the nasal cavities and eye or eyelid may also occur. When five (5) mls. of a 10 mM solution of pyruvate was used prior to the administration of this medication; the patient reported that the irritation and chest soreness was eliminated. […] Tissue culture studies with HSV-1, HSV-2 and various rhinoviruses, have shown that 10-40 mM concentrations of pyruvate reduced viral plaques by 40-60% by increasing the synthesis of various cytokines. The combination of various antivirals with pyruvate totally eliminated the virus infection in cells. The inhalation of 5.0 mls of a 20 mM solution of sodium pyruvate used by itself reduced viral infections in a patient with sinusitis by 50%.

The test system of experiment [2] is HSV-1, HSV-2 and various rhinoviruses. The experiment can be described thus: Tissue culture studies, viral plaques. It is filed as cell-based. The following applies: 10-40 mM concentrations. On the procedure:
as §1

Experiment [3] can be described thus: One week open label home-use trial of sodium pyruvate+saline nasal sprays (Example 5). It is filed as in vivo, human. The text has this: Thirty-nine (39) subjects who were regular nasal spray users due to chronic sinusitis or allergic rhinitis and other sinus diseases were recruited for a one week open label, in home-use trial. Allergic rhinitis and other sinus diseases result in the elevation of certain inflammatory components and the concurrent down regulation of some other inflammatory components. When this happens, infections can occur. The ability to up-regulate these immune components helps balance the nasal immune system to inhibit infections and minimize injury to surrounding tissues. Six (6) different sodium pyruvate+saline combination nasal sprays, based on concentrations of saline and sodium pyruvate, were administered to the subjects, and each of the test products were used by at least six subjects. The subjects used the test nasal sprays at home (two to three sprays; two or three times a day) for seven days, in place of their regular nasal spray.
Prior to, and at the end of the study period, the subjects' nostrils were examined for mucosal fragility, lesions, erythema, and edema using a rhinoscope.
Thirty-eight subjects completed the study. […] The test formula ranged from 0.5 mM solutions to 20 mM solutions. […] In this case we delivered the 20 mM solution nasal solution with sodium pyruvate. […]

On to `Nc1nc2c(ncn2COCCO)c(=O)[nH]1` [Acyclovir, 9-[(2-hydroxyethyloxy)methyl]guanine], for which the “Percentage of viral plaque reduction in virally infected cells” value with HSV-I infected cell (Acyclovir alone, therapeutic dose) was determined as 40%. Moreover, in the experiment on HSV-I infected cell, the “viral plaque formation decreased” value worked out at 60%.
Take `CC(=O)C(=O)[O-].[Na+]` [sodium pyruvate]: in experiment [1] (inhalation at 0.5 mM), the “levels of TNF-α” value is “did not increase” and the “levels of white blood cells, elastase, IL-8, IL-6” value is given as “reduced”. Moreover, the “total proteins, elastase, IL-6, IL-8, and TNF-α” value in experiment [1] (inhalation of 5 ml of 0.5 mM) is listed as “reduced”. Further, the “total proteins, elastase, IL-6, IL-8, and TNF-α” value in experiment [1] (inhalation of 5 ml of 5 mM or higher) is on record as “increased”. The “levels of white blood cells elastase, IL-8, IL-6, IL-10 and TNF-α” value in experiment [1] (inhalation of more than 5 mM in humans) is recorded as “increased”. In addition, in the experiment on HSV-I infected cell, the “viral plaque formation decreased” value amounted to 50%. For the same molecule, the viral infections reduced in the experiment with viral infections is given as 50%. Also, the viral plaques reduced in experiment [2] is reported as 40-60%. Moreover, the “effectiveness rated by the patients compared to the 20-40 mM solutions” value in experiment [3] (0.5 mM to 5 mM solutions) is recorded as “non-effective to less effective”. Also, in experiment [3] (40 mM solution), the “rating by the patients” value is on record as “favorably rated”.
